From ChEMBL document CHEMBL3244324, “Synthesis of analogues of N-(2-chloroethyl)-N'-(trans-4-methylcyclohexyl)-N-nitrosourea for evaluation as anticancer agents” (J Med Chem, 1977)

Legend:
[1] = Octanol-water partition coefficient, log P of the compound; assay type: physicochemical
Mus musculus = test: Toxicity in ip dosed BDF1 mouse; assay type: organism-based; details: in vivo
L1210 = test: Antitumor activity against mouse L1210 cells allografted in ip dosed BDF1 mouse assessed as increase of life span of host measured up to 45 days; assay type: functional; details: 1080 h
[2] = Octanol-water partition coefficient, log P of the compound at pH 7.4; assay type: physicochemical
[3] = Therapeutic index, ratio of LD10 for BDF1 mouse to ED50 for mouse L1210 cells allografted in ip dosed BDF1 mouse; assay type: organism-based; details: in vivo, read-out: TI

SMILES | logP ([1]; read-out: logP) | LD10 (Mus musculus) | ED50 (L1210) | logD [2] | selectivity ratio [3] | logP [1]
CCCCCC(C)NC(=O)N(CCCl)N=O (stereo not given) | 3.8 | 57 mg/kg | 27 mg/kg | – | – | –
O=NN(CCCl)C(=O)NC(C(=O)O)C1CCCCC1 (stereo not given) | – | 73 mg/kg | 50 mg/kg | 0 | 0.63 | –
O=NN(CCCl)C(=O)N[C@H]1CC[C@@H](C(=O)O)CC1 | – | 26 mg/kg | 16 mg/kg | -1.1 | 0.62 | –
C[C@H]1CC[C@H](NC(=O)N(CCCl)N=O)CC1 | 3.3 | 42 mg/kg | 18 mg/kg | – | 0.43 | –
O=NN(CCCl)C(=O)N[C@H]1CC[C@@H](O)CC1 | 1.1 | 46 mg/kg | 22 mg/kg | – | 0.48 | –
O=NN(CCCl)C(=O)N[C@H]1CC[C@H](C(=O)O)CC1 | – | 30 mg/kg | 17 mg/kg | -1.1 | 0.57 | –
O=NN(CCCl)C(=O)N[C@H]1CC[C@@H](CC(=O)O)CC1 | – | 51 mg/kg | 27 mg/kg | -0.6 | 0.53 | –
O=NN(CCCl)C(=O)N[C@H]1CC[C@H](CC(=O)O)CC1 | – | 40 mg/kg | 12 mg/kg | -0.6 | 0.3 | –
COC(=O)[C@H]1CC[C@@H](NC(=O)N(CCCl)N=O)CC1 | 2.6 | 54 mg/kg | 15 mg/kg | – | 0.28 | –
CO[C@H]1CC[C@@H](NC(=O)N(CCCl)N=O)CC1 | 2.4 | 38 mg/kg | 20 mg/kg | – | 0.53 | –
C[C@H]1S(=O)(=O)C[C@H](NC(=O)N(CCCl)N=O)CS1(=O)=O | -0.4 | 51 mg/kg | 19 mg/kg | – | 0.37 | –
O=NN(CCF)C(=O)N[C@H]1CC[C@@H](C(=O)O)CC1 | – | 29 mg/kg | 30 mg/kg | -1.7 | – | –
CO[C@H]1CC[C@H](NC(=O)N(CCCl)N=O)CC1 | 2.4 | 44 mg/kg | 23 mg/kg | – | 0.52 | –
COC(=O)[C@H]1CC[C@H](NC(=O)N(CCCl)N=O)CC1 | 2.6 | 26 mg/kg | 14 mg/kg | – | 0.54 | –
O=NN(CCCl)C(=O)N[C@H]1CC[C@H](O)CC1 | 1 | 42 mg/kg | 14 mg/kg | – | 0.4 | –
O=NN(CCF)C(=O)N[C@H]1CC[C@H](C(=O)O)CC1 | – | 56 mg/kg | 30 mg/kg | -1.7 | – | –
C[C@H]1S(=O)(=O)C[C@@H](NC(=O)N(CCCl)N=O)CS1(=O)=O | -0.4 | 36 mg/kg | 18 mg/kg | – | 0.5 | –
CC(=O)OC[C@H]1CC[C@H](NC(=O)N(CCF)N=O)CC1 | 2.5 | 57 mg/kg | 45 mg/kg | – | 0.79 | –
CC(=O)O[C@H]1CC[C@H](NC(=O)N(CCCl)N=O)CC1 | 2.6 | 45 mg/kg | 18 mg/kg | – | 0.4 | –

SMILES | logP ([1]; read-out: logP) | LD10 (Mus musculus) | ED50 (L1210) | logD [2] | selectivity ratio [3] | logP [1]
CC(=O)O[C@H]1CC[C@H](NC(=O)N(CCF)N=O)CC1 | 2 | 36 mg/kg | 18 mg/kg | – | 0.5 | –
C[C@H]1SC[C@@H](NC(=O)N(CCCl)N=O)CS1 | 2.6 | 31 mg/kg | 16 mg/kg | – | 0.53 | –
C[C@H]1CC[C@H](NC(=O)N(CCF)N=O)CC1 | 2.7 | 44 mg/kg | 25 mg/kg | – | 0.57 | –
O=NN(CCCl)C(=O)N[C@H]1CC[C@@H](NC(=O)N(CCCl)N=O)CC1 | 2.7 | 84 mg/kg | 40 mg/kg | – | 0.48 | –
O=NN(CCCl)C(=O)N[C@H]1CC[C@H](NC(=O)N(CCCl)N=O)CC1 | 2.7 | 270 mg/kg | 71 mg/kg | – | 0.26 | –
O=NN(CCCl)C(=O)N[C@H]1CC[C@H](C[C@H]2CC[C@H](NC(=O)N(CCCl)N=O)CC2)CC1 | 3.1 | 250 mg/kg | 96 mg/kg | – | 0.38 | –
CCOC(=O)[C@H]1CC[C@H](NC(=O)N(CCCl)N=O)CC1 | 3.1 | 33 mg/kg | 17 mg/kg | – | 0.52 | –
O=COC[C@H]1CC[C@H](NC(=O)N(CCCl)N=O)CC1 | 2.6 | 22 mg/kg | 10 mg/kg | – | 0.45 | –
CC(=O)OC[C@H]1CC[C@H](NC(=O)N(CCCl)N=O)CC1 | 3.1 | 28 mg/kg | 14 mg/kg | – | 0.5 | –
O=NN(CCCl)C(=O)N[C@H]1CC[C@H](CCl)CC1 | 3.7 | 62 mg/kg | 43 mg/kg | – | 0.69 | –
O=NN(CCCl)C(=O)N[C@H]1CCCC[C@@H]1Cl (relative stereo) | 2.7 | 57 mg/kg | 36 mg/kg | – | 0.63 | –
C[C@H]1CCC[C@H](NC(=O)N(CCCl)N=O)C1 (relative stereo) | – | 110 mg/kg | 53 mg/kg | – | 0.48 | 3.3
O=NN(CCCl)C(=O)N[C@H]1CCCC[C@H]1Cl (relative stereo) | 2.7 | 96 mg/kg | 54 mg/kg | – | 0.56 | –
C[C@@H]1CCC[C@H](NC(=O)N(CCCl)N=O)C1 (relative stereo) | 3.3 | 120 mg/kg | 45 mg/kg | – | 0.38 | –
O=NN(CCCl)C(=O)N[C@H]1CCC[C@@H](C(=O)O)C1 (relative stereo) | – | 34 mg/kg | 21 mg/kg | -1.1 | 0.62 | –
CCOC(=O)[C@@H]1CCC[C@H](NC(=O)N(CCCl)N=O)C1 (relative stereo) | 3.1 | 50 mg/kg | 28 mg/kg | – | 0.56 | –
O=NN(CCCl)C(=O)NCCCl [CARMUSTINE] | 1.5 | 41 mg/kg | 20 mg/kg | – | 0.49 | –
O=NN(CCCl)C(=O)NC1CCCCC1 [LOMUSTINE] | 2.8 | 48 mg/kg | 37 mg/kg | – | 0.77 | –
